“Also recorded” adds a separate entry of the source. Bridge positions count the residues as written; N and C are the ends. Peptide text beside a SMILES is read from it.
Experiments:
[1] = in vivo, previously shown; cited from earlier work
[2] = system: rat A-10 vascular smooth muscle cell; conditions: J. Biol. Chem. 265, 14044-14049 (1990); cited from earlier work
ETB-receptor = target: T1, ETB-receptor (Homo sapiens, UniProt P24530); experiment: Competitive 125I-ET-1 binding assay on COS-7 cells transfected with CDM8-pHETBR
T1 construct: expressed in transfected cells; host or cells: COS-7 cells
T1 sequence (P24530 27-442): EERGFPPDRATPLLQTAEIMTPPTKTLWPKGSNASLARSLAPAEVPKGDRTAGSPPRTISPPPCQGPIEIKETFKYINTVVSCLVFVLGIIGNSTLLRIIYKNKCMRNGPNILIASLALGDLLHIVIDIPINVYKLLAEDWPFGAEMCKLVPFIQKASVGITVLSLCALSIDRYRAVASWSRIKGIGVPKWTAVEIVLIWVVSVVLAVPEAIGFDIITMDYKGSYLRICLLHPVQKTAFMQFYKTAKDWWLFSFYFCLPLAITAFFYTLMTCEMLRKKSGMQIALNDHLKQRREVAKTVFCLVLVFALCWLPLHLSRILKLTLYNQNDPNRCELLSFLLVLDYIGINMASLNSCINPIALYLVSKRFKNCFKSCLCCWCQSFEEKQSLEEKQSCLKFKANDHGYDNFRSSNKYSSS

ETA-receptor [3] = target: T2, ETA-receptor (Homo sapiens, UniProt P25101); experiment: Competitive 125I-ET-1 binding assay on COS-7 cells transfected with CDM8-phETIR; set-up: expressed in transfected cells; host or cells: COS-7 cells; conditions: displacement of 50 pM 125I-ET-1, transfected COS-7 cells, 37° C. for 60 min
T2 sequence (P25101 21-427): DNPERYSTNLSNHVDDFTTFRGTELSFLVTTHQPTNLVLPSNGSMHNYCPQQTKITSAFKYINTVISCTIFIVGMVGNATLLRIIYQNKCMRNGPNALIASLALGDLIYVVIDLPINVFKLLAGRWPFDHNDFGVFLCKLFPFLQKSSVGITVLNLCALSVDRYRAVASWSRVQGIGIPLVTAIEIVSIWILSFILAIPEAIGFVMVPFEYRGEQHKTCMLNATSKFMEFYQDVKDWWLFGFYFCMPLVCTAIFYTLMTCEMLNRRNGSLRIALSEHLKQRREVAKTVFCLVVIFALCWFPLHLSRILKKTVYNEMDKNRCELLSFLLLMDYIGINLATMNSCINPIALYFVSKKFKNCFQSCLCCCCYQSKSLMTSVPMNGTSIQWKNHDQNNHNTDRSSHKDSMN

ETA-receptor [4] = target: T2, ETA-receptor; experiment: Inward current in Xenopus laevis oocytes injected with ETA-receptor mRNA; assay type: cell-based; conditions: 1×10^−7 M peptide, holding potential −60 mV, 20° C.

| SMILES | vasoconstrictor strength [1] | inhibition of binding of 125I-ET-1 [2] | IC50 (ETB-receptor; displacement of 125I-ET-1, COS cell transformed with CDM8-pHETBR) | IC50 (ETA-receptor [3]) | affinity of the receptor (FIG. 4) (ETB-receptor; transformant containing CDM8-pHETBR) | inward current recorded from the oocyte (ETA-receptor [4]) |
| --- | --- | --- | --- | --- | --- | --- |
| CC[C@H](C)[C@H](NC(=O)[C@H](CC(=O)O)NC(=O)[C@H](CC(C)C)NC(=O)[C@H](Cc1c[nH]cn1)NC(=O)[C@@H]1CSSC[C@H](N)C(=O)N[C@@H](CO)C(=O)N[C@H]2CSSC[C@H](NC(=O)[C@H](CCC(=O)O)NC(=O)[C@H](CCCCN)NC(=O)[C@H](CC(=O)O)NC(=O)[C@H](CCSC)NC(=O)[C@H](CC(C)C)NC(=O)[C@H](CO)NC(=O)[C@H](CO)NC2=O)C(=O)N[C@@H](C(C)C)C(=O)N[C@@H](Cc2ccc(O)cc2)C(=O)N[C@@H](Cc2ccccc2)C(=O)N1)C(=O)N[C@H](C(=O)N[C@@H](Cc1c[nH]c2ccccc12)C(=O)O)[C@@H](C)CC [ET-1, Endothelin 1] | much more strong vasoconstrictors than ET-3 | inhibit the binding of ^125I-ET-1 |  |  |  |  |
| CC[C@H](C)[C@H](NC(=O)[C@H](CC(=O)O)NC(=O)[C@H](CC(C)C)NC(=O)[C@H](Cc1cnc[nH]1)NC(=O)[C@@H]1CSSC[C@H](N)C(=O)N[C@@H](CO)C(=O)N[C@H]2CSSC[C@H](NC(=O)[C@H](CCC(=O)O)NC(=O)[C@H](CCCCN)NC(=O)[C@H](CC(=O)O)NC(=O)[C@H](CC(C)C)NC(=O)[C@H](Cc3c[nH]c4ccccc34)NC(=O)[C@H](CO)NC(=O)[C@H](CO)NC2=O)C(=O)N[C@@H](C(C)C)C(=O)N[C@@H](Cc2ccc(O)cc2)C(=O)N[C@@H](Cc2ccccc2)C(=O)N1)C(=O)N[C@H](C(=O)N[C@@H](Cc1c[nH]c2ccccc12)C(=O)O)[C@@H](C)CC [ET-2, Endothelin 2] (H-CSCSSWLDKECVYFCHLDIIW-OH; disulfide 1-15, 3-11) |  |  | ~1 nM | 6.1 nM |  |  |
| CC[C@H](C)[C@H](NC(=O)[C@H](CC(=O)O)NC(=O)[C@H](CC(C)C)NC(=O)[C@H](Cc1c[nH]cn1)NC(=O)[C@@H]1CSSC[C@H](N)C(=O)N[C@@H](CO)C(=O)N[C@H]2CSSC[C@H](NC(=O)[C@H](CCC(=O)O)NC(=O)[C@H](CCCCN)NC(=O)[C@H](CC(=O)O)NC(=O)[C@H](CC(C)C)NC(=O)[C@H](Cc3c[nH]c4ccccc34)NC(=O)[C@H](CO)NC(=O)[C@H](CO)NC2=O)C(=O)N[C@@H](C(C)C)C(=O)N[C@@H](Cc2ccc(O)cc2)C(=O)N[C@@H](Cc2ccccc2)C(=O)N1)C(=O)N[C@H](C(=O)N[C@@H](Cc1c[nH]c2ccccc12)C(=O)O)[C@@H](C)CC [ET-2, Endothelin 2] (H-CSCSSWLDKECVYFCHLDIIW-OH; disulfide 1-15, 3-11; N-terminus and C-terminus assumed) | much more strong vasoconstrictors than ET-3 | inhibit the binding of ^125I-ET-1 |  |  | almost the same affinity | the same value of current; also recorded: A similar inward current |

From US6821743B2, “Human endothelin receptor” (Shionogi Sieyaku Kabushiki Kaisha, priority 1991, dated 2004)
